Reference: US20020038064A1, “Colorless petroleum marker dyes” (priority 2000, published 2002)

Test: Water extraction test of 10 ppm marker solution in kerosene
Assay type: physicochemical
Details: 10 mL of 10 ppm solution in kerosene stirred with 10 mL water for ½ hour; layers separated, 2 mL developer added to each layer
Procedure: A marker solution was prepared by dissolving a 100 mg portion of the residue in xylenes (100 mL), and diluting 1 mL of the resulting solution to 100 mL with kerosene to make a 10 ppm solution.
A developer was made by dissolving 1 g of a 40% solution of benzyltrimethylammonium hydroxide in methanol in 99 g of 2-ethyl-1-hexanol. To a 10 mL portion of the 10 ppm marker solution prepared above was added 2.5 mL of the developer. […] If necessary, quantitative determination of the marker concentration can be accomplished by measuring the absorbance of the solution at a wavelength of 581 nm.
A 10 mL portion of the 10 ppm solution prepared above was stirred with 10 mL of water for ½ hour and the layers were separated. […] Addition of 2 mL of developer solution to the water layer gave no color.

CCCC(=O)Oc1ccc(C2(c3ccc(OC(=O)CCC)c(C)c3)OC(=O)c3ccccc32)cc1C [Example 1, Di-n-Butyl Ester of o-Cresolphthalein]
extraction of the marker into the water layer: not extracted into the water layer
